Consider four compounds from ChEMBL document CHEMBL4477252, “Optimization of microtubule affinity regulating kinase (MARK) inhibitors with improved physical properties” (Bioorg Med Chem Lett, 2016).

One may read the IC50 as the concentration needed to halve the response being measured.

A value given as a limit tells only on which side of the number the result lay.

One test concerns the target T1, Ephrin type-B receptor 2 (Homo sapiens, UniProt P29323).
T1 sequence (P29323 whole entry): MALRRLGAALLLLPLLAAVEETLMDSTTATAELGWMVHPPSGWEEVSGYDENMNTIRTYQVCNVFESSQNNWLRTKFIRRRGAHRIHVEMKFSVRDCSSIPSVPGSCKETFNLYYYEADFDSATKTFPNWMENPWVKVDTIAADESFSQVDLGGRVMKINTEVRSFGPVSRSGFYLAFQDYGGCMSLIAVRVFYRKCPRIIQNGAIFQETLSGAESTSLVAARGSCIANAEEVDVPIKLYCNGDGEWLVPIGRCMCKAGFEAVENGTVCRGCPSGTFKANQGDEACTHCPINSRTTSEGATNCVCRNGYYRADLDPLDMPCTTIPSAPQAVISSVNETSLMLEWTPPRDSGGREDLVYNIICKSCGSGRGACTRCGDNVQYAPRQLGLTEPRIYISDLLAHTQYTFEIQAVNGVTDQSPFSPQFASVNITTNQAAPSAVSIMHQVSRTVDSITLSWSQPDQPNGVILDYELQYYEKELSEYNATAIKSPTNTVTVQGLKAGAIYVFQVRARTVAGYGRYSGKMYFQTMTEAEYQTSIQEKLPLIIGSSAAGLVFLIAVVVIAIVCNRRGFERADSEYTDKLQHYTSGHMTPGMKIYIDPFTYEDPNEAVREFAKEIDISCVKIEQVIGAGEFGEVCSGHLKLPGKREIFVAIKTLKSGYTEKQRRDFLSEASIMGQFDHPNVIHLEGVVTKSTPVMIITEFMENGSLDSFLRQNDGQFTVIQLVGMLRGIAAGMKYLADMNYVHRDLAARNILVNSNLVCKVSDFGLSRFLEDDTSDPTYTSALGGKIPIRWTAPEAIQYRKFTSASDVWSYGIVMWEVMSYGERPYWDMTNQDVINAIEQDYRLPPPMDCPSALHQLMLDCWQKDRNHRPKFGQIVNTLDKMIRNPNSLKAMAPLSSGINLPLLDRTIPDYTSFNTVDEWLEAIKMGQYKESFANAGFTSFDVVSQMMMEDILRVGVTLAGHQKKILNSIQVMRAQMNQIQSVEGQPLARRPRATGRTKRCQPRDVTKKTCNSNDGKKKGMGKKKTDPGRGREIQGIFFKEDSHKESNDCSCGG
The test can be described thus: Inhibition of recombinant human GST-tagged cytoplasmic EPHB2 expressed in baculovirus expression system by Z'-LYTE assay.

Test [1] deals with Mast/stem cell growth factor receptor Kit (Homo sapiens, UniProt P10721). Kind of test: Inhibition of recombinant human His-tagged cytoplasmic KIT expressed in baculovirus expression system by Z'-LYTE assay.
Test [2] addresses Proto-oncogene tyrosine-protein kinase Src (Homo sapiens, UniProt P12931). The test can be described thus: Inhibition of full-length recombinant human His-tagged SRC expressed in baculovirus expression system by Adapta assay.
Test [3] has as its target T2, Protein kinase C iota type (Homo sapiens, UniProt P41743).
T2 sequence (P41743 whole entry): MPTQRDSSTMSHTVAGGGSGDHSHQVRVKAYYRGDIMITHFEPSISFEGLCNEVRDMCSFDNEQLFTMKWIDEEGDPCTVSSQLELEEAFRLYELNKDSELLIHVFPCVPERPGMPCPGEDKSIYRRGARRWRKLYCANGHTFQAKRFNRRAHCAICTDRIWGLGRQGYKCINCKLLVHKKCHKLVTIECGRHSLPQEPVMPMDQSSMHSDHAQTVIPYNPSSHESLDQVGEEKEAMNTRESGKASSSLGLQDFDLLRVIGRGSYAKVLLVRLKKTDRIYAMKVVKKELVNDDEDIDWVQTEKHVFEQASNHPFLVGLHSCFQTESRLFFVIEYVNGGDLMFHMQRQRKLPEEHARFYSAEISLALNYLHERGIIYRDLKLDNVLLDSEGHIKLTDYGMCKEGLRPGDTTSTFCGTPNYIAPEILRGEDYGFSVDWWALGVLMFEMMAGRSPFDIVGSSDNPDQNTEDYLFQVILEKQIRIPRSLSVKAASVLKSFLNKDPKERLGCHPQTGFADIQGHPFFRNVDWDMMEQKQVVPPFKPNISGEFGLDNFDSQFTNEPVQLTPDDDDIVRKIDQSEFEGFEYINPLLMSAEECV
The test can be described thus: Inhibition of full-length recombinant human His-tagged PRKCI expressed in baculovirus expression system by Z'-LYTE assay.

Test [4] concerns the target T3, Beta-adrenergic receptor kinase 1 (Homo sapiens, UniProt P25098).
T3 sequence (P25098 whole entry): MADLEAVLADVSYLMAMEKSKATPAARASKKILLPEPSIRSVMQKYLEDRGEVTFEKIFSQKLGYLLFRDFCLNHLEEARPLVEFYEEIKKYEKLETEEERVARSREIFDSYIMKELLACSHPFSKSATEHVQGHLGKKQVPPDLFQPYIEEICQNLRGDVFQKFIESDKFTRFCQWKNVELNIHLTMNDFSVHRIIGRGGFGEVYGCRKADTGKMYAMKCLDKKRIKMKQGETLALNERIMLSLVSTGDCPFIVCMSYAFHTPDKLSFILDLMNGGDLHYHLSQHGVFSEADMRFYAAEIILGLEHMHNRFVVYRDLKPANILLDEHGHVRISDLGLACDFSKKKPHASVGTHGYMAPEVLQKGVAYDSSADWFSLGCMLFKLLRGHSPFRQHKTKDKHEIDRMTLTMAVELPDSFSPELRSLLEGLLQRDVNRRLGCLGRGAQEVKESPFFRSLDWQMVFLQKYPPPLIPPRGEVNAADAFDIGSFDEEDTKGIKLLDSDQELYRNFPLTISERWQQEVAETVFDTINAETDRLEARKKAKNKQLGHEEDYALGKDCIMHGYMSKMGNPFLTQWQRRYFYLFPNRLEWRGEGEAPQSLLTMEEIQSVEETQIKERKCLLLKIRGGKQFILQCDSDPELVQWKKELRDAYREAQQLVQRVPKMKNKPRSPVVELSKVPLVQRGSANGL
The test can be described thus: Inhibition of full-length recombinant human His-tagged ADRBK1 expressed in baculovirus expression system by Z'-LYTE assay.

Test [5] concerns the target Insulin-like growth factor 1 receptor (Homo sapiens, UniProt P08069). The test can be described thus: Inhibition of recombinant human C-terminal His-tagged cytoplasmic IGF1R (960 to 1397 residues) expressed in baculovirus expression system by Z'-LYTE assay.
Test [6] concerns the target RAC-gamma serine/threonine-protein kinase (Homo sapiens, UniProt Q9Y243). Kind of test: Inhibition of full-length recombinant human His-tagged AKT3 expressed in baculovirus expression system by Z'-LYTE assay.

Chain of Insulin-like growth factor 1 receptor (P08069 31-736 limits assumed): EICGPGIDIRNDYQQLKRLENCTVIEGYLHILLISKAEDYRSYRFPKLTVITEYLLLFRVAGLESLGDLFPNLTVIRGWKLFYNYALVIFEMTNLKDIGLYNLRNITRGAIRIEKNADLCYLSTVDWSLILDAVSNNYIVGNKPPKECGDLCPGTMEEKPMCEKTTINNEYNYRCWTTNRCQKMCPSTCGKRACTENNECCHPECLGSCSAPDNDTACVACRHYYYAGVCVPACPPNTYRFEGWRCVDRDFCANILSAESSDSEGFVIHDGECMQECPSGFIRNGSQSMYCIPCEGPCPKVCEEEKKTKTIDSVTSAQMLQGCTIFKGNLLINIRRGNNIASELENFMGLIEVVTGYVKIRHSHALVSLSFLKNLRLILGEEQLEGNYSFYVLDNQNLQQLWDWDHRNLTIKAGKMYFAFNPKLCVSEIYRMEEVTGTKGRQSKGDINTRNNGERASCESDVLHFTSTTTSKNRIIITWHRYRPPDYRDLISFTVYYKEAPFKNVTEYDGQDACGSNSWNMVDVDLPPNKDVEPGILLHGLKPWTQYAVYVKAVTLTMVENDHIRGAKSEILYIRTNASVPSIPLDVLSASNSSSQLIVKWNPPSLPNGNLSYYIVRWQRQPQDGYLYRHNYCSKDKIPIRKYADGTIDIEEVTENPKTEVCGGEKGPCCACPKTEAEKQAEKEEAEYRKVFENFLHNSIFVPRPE
Chain of Insulin-like growth factor 1 receptor (P08069 741-1367 limits assumed): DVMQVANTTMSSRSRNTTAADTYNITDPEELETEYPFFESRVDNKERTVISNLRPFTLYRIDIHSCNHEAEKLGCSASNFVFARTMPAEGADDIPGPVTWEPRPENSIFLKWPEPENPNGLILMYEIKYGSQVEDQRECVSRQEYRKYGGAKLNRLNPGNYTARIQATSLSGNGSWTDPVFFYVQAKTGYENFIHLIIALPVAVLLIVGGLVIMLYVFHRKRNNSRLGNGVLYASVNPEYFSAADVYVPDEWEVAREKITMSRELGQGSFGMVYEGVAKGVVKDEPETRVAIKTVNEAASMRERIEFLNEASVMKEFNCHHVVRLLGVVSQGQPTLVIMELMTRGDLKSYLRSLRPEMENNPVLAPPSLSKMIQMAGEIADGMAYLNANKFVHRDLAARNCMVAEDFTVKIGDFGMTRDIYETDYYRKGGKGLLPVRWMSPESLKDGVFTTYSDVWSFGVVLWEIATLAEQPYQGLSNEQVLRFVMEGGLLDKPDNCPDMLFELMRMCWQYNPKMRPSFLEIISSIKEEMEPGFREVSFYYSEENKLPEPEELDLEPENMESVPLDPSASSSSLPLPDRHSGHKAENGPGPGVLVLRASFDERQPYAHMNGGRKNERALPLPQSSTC
Chain of Mast/stem cell growth factor receptor Kit (P10721 whole entry): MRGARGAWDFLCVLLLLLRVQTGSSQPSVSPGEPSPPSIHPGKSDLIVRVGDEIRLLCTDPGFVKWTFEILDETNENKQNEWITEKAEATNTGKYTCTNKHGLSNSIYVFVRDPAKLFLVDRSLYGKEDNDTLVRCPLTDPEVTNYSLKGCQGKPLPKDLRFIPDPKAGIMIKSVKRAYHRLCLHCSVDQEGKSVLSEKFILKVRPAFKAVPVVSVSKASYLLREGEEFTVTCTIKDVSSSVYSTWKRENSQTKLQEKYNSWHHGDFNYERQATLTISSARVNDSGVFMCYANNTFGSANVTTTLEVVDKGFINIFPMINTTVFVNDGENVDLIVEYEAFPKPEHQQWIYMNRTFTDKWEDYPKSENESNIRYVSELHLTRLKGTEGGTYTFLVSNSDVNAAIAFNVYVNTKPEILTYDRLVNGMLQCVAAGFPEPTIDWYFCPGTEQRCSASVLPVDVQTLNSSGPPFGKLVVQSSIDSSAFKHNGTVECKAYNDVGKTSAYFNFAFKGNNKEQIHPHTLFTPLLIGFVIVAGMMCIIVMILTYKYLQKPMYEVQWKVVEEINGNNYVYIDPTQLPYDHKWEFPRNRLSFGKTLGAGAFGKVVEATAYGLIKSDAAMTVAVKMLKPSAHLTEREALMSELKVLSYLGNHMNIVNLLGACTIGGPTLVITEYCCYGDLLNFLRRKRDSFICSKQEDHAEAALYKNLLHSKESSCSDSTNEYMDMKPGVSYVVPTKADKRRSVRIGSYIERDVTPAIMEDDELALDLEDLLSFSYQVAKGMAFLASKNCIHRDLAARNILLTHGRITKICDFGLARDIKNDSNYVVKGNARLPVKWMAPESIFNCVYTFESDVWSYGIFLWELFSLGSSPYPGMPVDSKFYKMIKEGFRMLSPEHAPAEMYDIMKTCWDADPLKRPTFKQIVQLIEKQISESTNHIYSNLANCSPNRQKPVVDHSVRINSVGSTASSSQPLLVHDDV
Chain of Proto-oncogene tyrosine-protein kinase Src (P12931 2-536 limits assumed): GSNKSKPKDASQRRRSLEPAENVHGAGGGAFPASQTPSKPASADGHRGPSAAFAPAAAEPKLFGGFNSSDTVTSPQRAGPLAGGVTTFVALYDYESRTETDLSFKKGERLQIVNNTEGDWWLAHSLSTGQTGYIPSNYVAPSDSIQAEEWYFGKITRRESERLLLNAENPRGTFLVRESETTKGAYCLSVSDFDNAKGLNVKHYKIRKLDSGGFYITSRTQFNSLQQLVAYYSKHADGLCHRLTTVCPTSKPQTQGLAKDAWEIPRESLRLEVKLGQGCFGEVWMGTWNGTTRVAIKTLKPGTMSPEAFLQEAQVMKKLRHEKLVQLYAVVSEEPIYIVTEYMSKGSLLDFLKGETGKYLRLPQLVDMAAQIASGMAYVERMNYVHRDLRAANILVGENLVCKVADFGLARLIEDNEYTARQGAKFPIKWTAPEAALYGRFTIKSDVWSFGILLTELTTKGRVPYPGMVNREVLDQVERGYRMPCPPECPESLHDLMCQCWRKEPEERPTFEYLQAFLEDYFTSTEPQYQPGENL
Chain of RAC-gamma serine/threonine-protein kinase (Q9Y243 whole entry): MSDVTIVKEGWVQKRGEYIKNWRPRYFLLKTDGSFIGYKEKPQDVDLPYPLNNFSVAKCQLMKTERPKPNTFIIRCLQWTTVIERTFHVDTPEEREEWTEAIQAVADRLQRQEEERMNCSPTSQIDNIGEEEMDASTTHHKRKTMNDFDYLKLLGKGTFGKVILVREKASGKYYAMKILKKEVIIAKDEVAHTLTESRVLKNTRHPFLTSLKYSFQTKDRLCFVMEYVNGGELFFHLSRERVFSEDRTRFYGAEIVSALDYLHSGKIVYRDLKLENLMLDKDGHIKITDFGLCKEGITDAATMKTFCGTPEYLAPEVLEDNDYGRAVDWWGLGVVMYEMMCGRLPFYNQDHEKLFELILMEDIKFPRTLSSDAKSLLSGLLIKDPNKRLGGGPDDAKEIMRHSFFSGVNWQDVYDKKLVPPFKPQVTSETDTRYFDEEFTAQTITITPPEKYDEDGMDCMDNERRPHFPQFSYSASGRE

Consider `Cn1cc(-c2cnc3c(-c4csc(C(=O)NCC(F)(F)F)c4)cnn3c2)cn1`, for which the IC50 on Ephrin type-B receptor 2 was 36 nM; in test [1] it was 810 nM; in test [2] it was 42 nM; in test [3] it was 6700 nM; in test [4] it was 23000 nM; in test [5] it was over 100000 nM. For the same compound, the IC50 in test [6] was over 100000 nM.

Turning to `Cc1sc(C(=O)N[C@@H]2[C@H](N)CCCC2(F)F)cc1-c1cnn2cc(Cl)cnc12`, the 50% inhibitory concentration (IC50) at Ephrin type-B receptor 2 is 3800 nM; in test [1] it was over 100000 nM; in test [2], 8100 nM; in test [3], 720 nM; in test [4] it was 11000 nM; in test [5], over 100000 nM. Further, the IC50 in test [6] worked out at 2400 nM.

Regarding `O=C(NCC(F)(F)F)c1cc(-c2cnn3cc(-c4ccc(OCCN5CCCCC5)cc4)cnc23)cs1`, the IC50 on Ephrin type-B receptor 2 was under 10 nM; in test [1], 2700 nM; in test [2], 37 nM; in test [3], 1500 nM; in test [4], 610 nM; in test [5] it was over 100000 nM. The half-inhibitory concentration (IC50) in test [6] is over 100000 nM.

For `Cn1cc(-c2cnc3c(-c4csc(C(=O)N[C@@H]5CCCC[C@@H]5N)c4)cnn3c2)cn1` (racemic), the IC50 was 2.9 nM at Ephrin type-B receptor 2; 690 nM in test [1]; 3 nM in test [2]; 37 nM in test [3]; 160 nM in test [4]; 2800 nM in test [5]. The IC50 in test [6] came out at 330 nM.
